Measured values as given in ChEMBL document CHEMBL3638596, “Protease inhibitors” (2014).

Experiments:
Cathepsin K = target: T1, Cathepsin K (Homo sapiens, UniProt P43235); assay: Enzyme Assay: Standard assay conditions for the determination of kinetic constants used a fluorogenic peptide substrate, typically H-D-Ala-Leu-Lys-AMC, and were determined in either 100 mM Mes/Tris, pH 7.0 containing 1 mM EDTA and 10 mM 2-mercaptoethanol or 100 mM Na phosphate, imM EDTA, 0.1% PEG4000 pH 6.5 or 100 mM Na acetate, pH 5.5 containing 5 mM EDTA and 20 mM cysteine, in each case optionally with […] as stabiliser. The enzyme concentration used was 5 nM. The stock substrate solution was prepared at 10 mM in DMSO. Screens were carried out at a fixed substrate concentration of 60 μM and detailed kinetic studies with doubling dilutions of substrate from 250 μM. The total DMSO concentration in the assay was kept below 3%. All assays were conducted at ambient temperature. Product fluorescence (excitation at 390 nm, emission at 460 nm) was monitored with a Labsystems Fluoroskan Ascent fluorescent plate reader.
T1 sequence (P43235 whole entry): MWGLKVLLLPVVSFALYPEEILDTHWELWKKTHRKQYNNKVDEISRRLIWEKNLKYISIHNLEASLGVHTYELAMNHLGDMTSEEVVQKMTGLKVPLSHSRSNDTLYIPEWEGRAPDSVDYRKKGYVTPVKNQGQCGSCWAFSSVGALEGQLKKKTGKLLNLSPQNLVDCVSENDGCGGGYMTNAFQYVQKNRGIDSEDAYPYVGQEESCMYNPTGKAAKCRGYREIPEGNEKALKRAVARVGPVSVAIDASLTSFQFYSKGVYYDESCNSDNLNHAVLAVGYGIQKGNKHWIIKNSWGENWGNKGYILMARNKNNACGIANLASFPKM

Cathepsin S = Cathepsin S (Homo sapiens, UniProt P25774); assay: Enzyme Assay: The assay uses baculovirus-expressed human cathepsin S and the boc-Val-Leu-Lys-AMC fluorescent substrate available from Bachem in a 384 well plate format, in which 7 test compounds can be tested in parallel with a positive control comprising a known cathepsin S inhibitor comparator. […] 2 μl of each 10 mM test compound is added to a separate well on row A, columns 1-10. Add 90 μl assay buffer containing 1 mM DTT and 2 nM cathepsin S to each well of rows B-H and 180 μl to row A.
Cathepsin S, sequence (P25774 whole entry): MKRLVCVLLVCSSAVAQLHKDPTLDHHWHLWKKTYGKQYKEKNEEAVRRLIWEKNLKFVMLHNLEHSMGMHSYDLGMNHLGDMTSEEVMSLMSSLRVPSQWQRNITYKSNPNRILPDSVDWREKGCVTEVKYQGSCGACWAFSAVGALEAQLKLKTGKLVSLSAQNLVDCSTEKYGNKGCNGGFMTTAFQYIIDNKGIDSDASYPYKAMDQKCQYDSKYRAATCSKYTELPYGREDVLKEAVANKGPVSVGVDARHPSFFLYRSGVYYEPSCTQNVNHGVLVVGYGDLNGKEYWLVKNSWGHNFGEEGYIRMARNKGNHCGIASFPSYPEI

- Ki (Cathepsin K): 0.6 nM
- Ki (Cathepsin S): 2900 nM
Structure (SMILES): C#C[C@@H]1CN(C(=O)[C@@H](NC(=O)c2ccc(-c3nc(N4CCN(C)CC4)sc3F)cc2)C2CCCC2)[C@@H]2C(=O)CO[C@H]12
